# From patent US11633459B2, “GIP derivatives and uses thereof” (priority 2018, dated 2023)
# Columns and labels:
# human GIP receptor = target: T1, human GIP receptor (Homo sapiens, UniProt P48546); assay: In vitro potency, CRE luciferase reporter gene assay, whole BHK cells expressing human GIP receptor; type: cell-based; conditions: 0.2% HSA
# T1 construct: expressed in transfected cells; host or cells: BHK cells (parent line BHKTS13), clone BHK CRE luc2P hGIPR clone #5
# T1 sequence (P48546 22-466): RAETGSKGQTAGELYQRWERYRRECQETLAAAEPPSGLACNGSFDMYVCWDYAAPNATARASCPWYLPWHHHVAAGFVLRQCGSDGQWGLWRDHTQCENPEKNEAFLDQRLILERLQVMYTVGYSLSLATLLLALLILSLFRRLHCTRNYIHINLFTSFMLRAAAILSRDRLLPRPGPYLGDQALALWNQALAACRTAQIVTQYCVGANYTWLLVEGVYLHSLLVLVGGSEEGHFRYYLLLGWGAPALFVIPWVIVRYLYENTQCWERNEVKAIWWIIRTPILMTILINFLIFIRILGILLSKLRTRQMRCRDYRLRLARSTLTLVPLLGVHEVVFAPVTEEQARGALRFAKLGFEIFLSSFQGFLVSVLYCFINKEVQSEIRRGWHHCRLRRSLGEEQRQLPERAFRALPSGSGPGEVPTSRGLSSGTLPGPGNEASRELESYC
# Summary of the method: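 BHK clones carrying a CRE luciferase element, each transfected with one human receptor, were seeded at 5000 cells/well overnight. Compounds were diluted in buffer with 1% ovalbumin and 0.1% Pluronic F-68, with or without human serum albumin. Luminescence was read after steadylite plus; non-linear log(agonist)-response fit, averaged over at least two replicates.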
# in vivo = conditions: female, Göttingen, minipig, iv, 5 nmol/kg
# Protocol: Pharmacokinetic Study in Minipigs
# The purpose of this study is to determine the half-life in vivo of the derivatives of the present invention after i.v. administration to minipigs, i.e. the prolongation of their time in the body and thereby their time of action. This is done in a pharmacokinetic (PK) study, where the terminal half-life of the derivative in question is determined. By terminal half-life is generally meant the period of time it takes to halve a certain plasma concentration, measured after the initial distribution phase.
# Female Göttingen minipigs were obtained from Ellegaard Göttingen Minipigs (Dalmose, Denmark) approximately 7-14 months of age and weighing from approximately 16-35 kg were used in the studies. The minipigs were housed individually and fed restrictedly once daily with SDS minipig diet (Special Diets Services, Essex, UK).
# After at 3 weeks of acclimatisation two permanent central venous catheters were implanted in vena cava caudalis in each animal. The animals were allowed 1 week recovery after the surgery, and were then used for repeated pharmacokinetic studies with a suitable wash-out period between successive derivative dosing.
# Blood samples (for example 0.8 ml) were collected in EDTA buffer (8 mM) and then centrifuged at 4° C. and 1942G for 10 minutes.
# Individual plasma concentration-time profiles were analysed by a non-compartmental model in Phoenix WinNonLin ver. […] (Pharsight Inc., Mountain View, Calif., USA), and the resulting terminal half-lives (harmonic mean) determined.
# [1] = Chemical stability: HMWP formation by SEC-MS; type: physicochemical; conditions: 250 μM, pH 7.4, 37° C., 4 weeks
# Protocol: The aim of this study is to determine the chemical stability of GIP derivative compositions. As a measure of stability of the GIP derivative composition, the formation of high molecular weight peptide formation (% HMWP) as a function of time was analysed by size-exclusion chromatography (SEC-MS). Further, the purity loss of the GIP derivative compositions was measured by LCMS. Samples for chemical stability assays were freshly prepared before each assay. […] The pH of the sample was adjusted to the desired value using appropriate amounts of concentrated NaOH and HCl. […] Formation of covalent oligomers (HMWPs) was analysed and identified by a SEC-MS method. […] The LC system was coupled to both a TUV detector operated at 215 nm, 10 Hz and a high resolution QToF mass spectrometer from Waters (Synapt G2S) operated in positive ion mode and m/z range of 100 to 4000 with normal resolution setting. Lock mass correction against Leu-Enkephalin was done every 31 sec. Spectra were processed in MassLynx version 4.1 and MaxEnt deconvoluted.
# [2] = Dynamic Light Scattering Stability Index (DLS-SI); type: physicochemical; conditions: concentration only 5 μM instead of 250 μM, pH 7.4, 25° C.
# [3] = Sub-chronic in vivo study in DIO mice: food intake and body weight; parameters: species or system DIO male C57BL/6J mice; conditions: Tables 6-8, compound 47 2 nmol/kg, GIP derivatives 30 nmol/kg
# Text: (§1) The purpose of this example is to assess the in vivo effect of the GIP derivatives of the present invention alone and in combination with a GLP-1 receptor agonist on food intake, body weight, and glucose tolerance in diet-induced obese (DIO) mice. The GLP-1 receptor agonist used for this example was a semaglutide-like molecule that has the same pharmacological properties as semaglutide, but a slightly different structure. The compound may be synthesised using methods known in the art, e.g. as described by methods of present Example 1 or as described in WO 2006/097537, example 4.
# (§2) The animals were treated once daily with the GLP-1 receptor agonist (compound no. 47) and/or a GIP derivative of the present invention exemplified by compound no.'s 5, 25 and 31, to assess weight loss, efficacy and glucose tolerance. Animals and Diet
# All animal protocols were approved by an Institutional Animal Care and Use Committee and Ethical Review Committee of Novo Nordisk. Animals were housed according to Novo Nordisk rodent housing standards, and were given ad libitum access to food and water under controlled lighting (12 h:12 h light/dark cycle; lights off 18:00-06:00), temperature (23±2° C.) and relative humidity (50±20%) conditions. […]
# Body weight (BW) and food intake were measured immediately prior to dosing each day. […]
# [4] = Sub-chronic in vivo study in DIO mice: IPGTT (intraperitoneal glucose tolerance test); parameters: species or system DIO male C57BL/6J mice; conditions: Tables 6-8, compound 47 2 nmol/kg, GIP derivatives 30 nmol/kg
# Text: as §1, §2
# All animal protocols were approved by an Institutional Animal Care and Use Committee and Ethical Review Committee of Novo Nordisk. […]
# On the day of the glucose tolerance test (day 15), animals were fasted for 4 h. […] Tail blood glucose levels were measured and mice were injected (t=0) with an intra-peritoneal (i.p.) glucose load of 2 g/kg (200 mg/ml glucose solution, dose volume 10 ml/kg). Tail blood glucose levels were measured at times 0, 15, 30, 60, 90, 120 minutes following the i.p. glucose load. […]
Compound,HMWP formation (%/month) [1] [%/month],effect on food intake and body weight (in words) [3],effect on glucose tolerance (in words) [4],also measured
"CCCC[C@H](NC(=O)[C@H](C)NC(=O)[C@@H](NC(=O)[C@H](CO)NC(=O)[C@H](Cc1ccc(O)cc1)NC(=O)[C@H](CC(=O)O)NC(=O)[C@H](CO)NC(=O)[C@@H](NC(=O)[C@H](Cc1ccccc1)NC(=O)[C@@H](NC(=O)CNC(=O)[C@H](CCC(=O)O)NC(=O)C(C)(C)NC(=O)[C@@H](Cc1ccc(O)cc1)NC(C)=O)[C@@H](C)O)[C@@H](C)CC)[C@@H](C)CC)C(=O)N[C@@H](CC(=O)O)C(=O)N[C@@H](CCCCN)C(=O)N[C@H](C(=O)N[C@@H](CCCNC(=N)N)C(=O)N[C@@H](CCC(N)=O)C(=O)N[C@@H](CCC(N)=O)C(=O)N[C@@H](CC(=O)O)C(=O)N[C@@H](Cc1ccccc1)C(=O)N[C@H](C(=O)N[C@@H](CCCCNC(=O)CC[C@H](NC(=O)CC[C@H](NC(=O)CC[C@H](NC(=O)CCCCCCCCCCCCCCCCC(=O)O)C(=O)O)C(=O)O)C(=O)O)C(=O)N[C@@H](Cc1c[nH]c2ccccc12)C(=O)N[C@@H](CC(C)C)C(=O)N[C@@H](CC(C)C)C(=O)N[C@@H](C)C(=O)N[C@@H](CCC(N)=O)C(=O)N[C@@H](CCCCN)C(=O)NCC(=O)O)C(C)C)[C@@H](C)CC [Compound 5, N{1}-acetyl, N{Epsilon-24}-[(4S)-4-carboxy-4-[[(4S)-4-carboxy-4-[[(4S)-4-carboxy-4-(17-carboxyheptadecanoylamino)butanoyl]amino]butanoyl]amino]butanoyl]-[D-Tyr1,Aib2,Nle14,Arg18,Lys24]-hGIP(1-31)]",–,–,–,EC50 (human GIP receptor): 20.9 pM; half-life (in vivo): 79 h
CC[C@H](C)[C@H](NC(=O)[C@H](CO)NC(=O)[C@H](Cc1ccc(O)cc1)NC(=O)[C@H](CC(=O)O)NC(=O)[C@H](CO)NC(=O)[C@@H](NC(=O)[C@H](Cc1ccccc1)NC(=O)[C@@H](NC(=O)CNC(=O)[C@H](CCC(=O)O)NC(=O)[C@H](C)NC(=O)[C@@H](N)Cc1ccc(O)cc1)[C@@H](C)O)[C@@H](C)CC)C(=O)N[C@@H](C)C(=O)N[C@@H](CCSC)C(=O)N[C@@H](CC(=O)O)C(=O)N[C@@H](CCCCN)C(=O)N[C@H](C(=O)N[C@@H](Cc1c[nH]cn1)C(=O)N[C@@H](CCC(N)=O)C(=O)N[C@@H](CCC(N)=O)C(=O)N[C@@H](CC(=O)O)C(=O)N[C@@H](Cc1ccccc1)C(=O)N[C@H](C(=O)N[C@@H](CC(N)=O)C(=O)N[C@@H](Cc1c[nH]c2ccccc12)C(=O)N[C@@H](CC(C)C)C(=O)N[C@@H](CC(C)C)C(=O)N[C@@H](C)C(=O)N[C@@H](CCC(N)=O)C(=O)N[C@@H](CCCCN)C(=O)NCC(=O)O)C(C)C)[C@@H](C)CC [hGIP(1-31)],0.15,–,–,DLS-SI precipitates [2]: formation of large aggregates became visible as precipitation
CC[C@H](C)[C@H](NC(=O)[C@H](CO)NC(=O)[C@H](Cc1ccc(O)cc1)NC(=O)[C@H](CC(=O)O)NC(=O)[C@H](CO)NC(=O)[C@@H](NC(=O)[C@H](Cc1ccccc1)NC(=O)[C@@H](NC(=O)CNC(=O)[C@H](CCC(=O)O)NC(=O)[C@H](C)NC(=O)[C@@H](N)Cc1ccc(O)cc1)[C@@H](C)O)[C@@H](C)CC)C(=O)N[C@@H](C)C(=O)N[C@@H](CCSC)C(=O)N[C@@H](CC(=O)O)C(=O)N[C@@H](CCCCN)C(=O)N[C@H](C(=O)N[C@@H](Cc1c[nH]cn1)C(=O)N[C@@H](CCC(N)=O)C(=O)N[C@@H](CCC(N)=O)C(=O)N[C@@H](CC(=O)O)C(=O)N[C@@H](Cc1ccccc1)C(=O)N[C@H](C(=O)N[C@@H](CC(N)=O)C(=O)N[C@@H](Cc1c[nH]c2ccccc12)C(=O)N[C@@H](CC(C)C)C(=O)N[C@@H](CC(C)C)C(=O)N[C@@H](C)C(=O)N[C@@H](CCC(N)=O)C(=O)N[C@@H](CCCCN)C(=O)NCC(=O)N[C@@H](CCCCN)C(=O)N[C@@H](CCCCN)C(=O)N[C@@H](CC(N)=O)C(=O)N[C@@H](CC(=O)O)C(=O)N[C@@H](Cc1c[nH]c2ccccc12)C(=O)N[C@@H](CCCCN)C(=O)N[C@@H](Cc1c[nH]cn1)C(=O)N[C@@H](CC(N)=O)C(=O)N[C@H](C(=O)N[C@H](C(=O)N[C@@H](CCC(N)=O)C(=O)O)[C@@H](C)O)[C@@H](C)CC)C(C)C)[C@@H](C)CC [hGIP(1-42)],2.0,–,–,–
"N^6,26-{18-[N-(17-carboxyheptadecanoyl)-D-γ-glutamyl]-10-oxo-3,6,12,15-tetraoxa-9,18-diazaoctadecanoyl}-[8-(2-amino-2-propanoic acid), 34-L-arginine]human glucagon-like peptide 1(7-37) [Compound 47, reference compound]",–,induced a reduction in food intake that resulted in body weight loss,improvement in glucose tolerance,–
"N{1}-acetyl,N{Epsilon-24}-[(4S)-4-carboxy-4-[[(4S)-4-carboxy-4-[[(4S)-4-carboxy-4-[[4-[(19-carboxynonadecanoylamino)methyl]cyclohexanecarbonyl]amino]butanoyl]-amino]butanoyl]amino]butanoyl]-[D-Tyr1,Nle14,Arg18,Aib20,Lys24]-hGIP(1-31) [Compound 25]",–,minor effect on food intake,improved glucose tolerance,–
